In US12435097B2, “Arginase inhibitors and methods of use thereof” (AstraZeneca AB, priority 2019, dated 2025):
Like-named read-outs stand apart in the source and are kept apart here. Values belong to the compound of their own block, whether it stands above or below them.

How the values were obtained:
Human Arginase 1 = biological target: T1, Human Arginase 1 (Homo sapiens, UniProt P05089); experiment: Human Arginase 1 enzyme inhibition (thioarginine/DTNB absorbance at 412 nm); type: biochemical; settings: recombinant enzyme from E. coli, 5 nM; 30 min pre-incubation, 60 min reaction
T1 construct: made in house; host or cells: E. coli
T1 sequence (P05089 1-322): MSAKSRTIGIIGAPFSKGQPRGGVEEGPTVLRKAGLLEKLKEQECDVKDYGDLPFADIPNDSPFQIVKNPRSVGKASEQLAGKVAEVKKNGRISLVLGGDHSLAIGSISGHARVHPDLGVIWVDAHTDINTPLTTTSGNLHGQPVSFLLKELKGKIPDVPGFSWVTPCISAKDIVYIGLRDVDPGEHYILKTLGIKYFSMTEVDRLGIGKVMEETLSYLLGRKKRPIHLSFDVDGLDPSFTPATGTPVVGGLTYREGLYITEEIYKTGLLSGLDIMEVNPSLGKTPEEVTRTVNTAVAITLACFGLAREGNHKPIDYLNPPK
Text: (§1) The inhibitory effects of Examples 1 to 12 on the activity of Human Arginase 1 and Arginase 2 activity were quantified by measuring the formation of the thiol group from thioarginine using recombinant Arginase 1 or Arginase 2 produced from E. coli. The thiol group was detected with Ellman's reagent, 5,5′-dithiobis(2-nitrobenzoic acid) (DTNB). DTNB reacts with the thiol to give the mixed disulfide and 2-nitro-5-thiobenzoic acid (TNB) which is quantified by the absorbance of the anion (TNB^2−) at 412 nm.
(§2) The assays were run in clear 384 well plates (Greiner cat no: 781101). Various concentrations of Examples 1 to 12 in 300 nL DMSO were dispensed to assay plates using an Echo acoustic dispenser immediately followed by plate sealing and centrifugation. Two pre-mixes were prepared from reagents thawed immediately before addition to assay plates. Pre-mix one comprised human Arginase 1 or human Arginase 2, at a final concentration of 5 nM and 0.5 mM DTNB in assay buffer, 45 mM HEPES pH7.5, brij 35, 0.045% (w/v) and 100 μM MnCl2. Pre-mix two comprised freshly thawed 0.5 mM thioarginine in assay buffer. Fifteen microlitres of pre-mix one was dispensed to assay plates containing Examples 1 to 12, centrifuged and incubated for 30 minutes at room temperature prior to adding fifteen microlitres of pre-mix two.
(§3) Assay plates were centrifuged prior to reading absorbance at 412 nm in a Pherastar multi-mode plate reader to collect data at time point 0 (T0). The plates were incubated at room temperature for 60 min prior to reading again to collect data at time point 1 (T1). Data is derived by subtracting the A412 signal measured at T0 (time point 0) from that measured at T1 (time point 1). The data was transformed to % effect using the equation: Compound % effect=100*[(X−min)/(max−min)], where X represents the normalized value for the compound based on the Min (vehicle) and Max (reference compound) inhibition control.
(§4) The concentration of Examples 1 to 12 that inhibited the activity by 50% (i.e. the IC50) was calculated by plotting the % effect versus test compound concentration and fitting the data using the Genedata Screener Smart fit algorithm.

Human Arginase 2 = biological target: T2, Human Arginase 2 (Homo sapiens, UniProt P78540); experiment: Human Arginase 2 enzyme inhibition (thioarginine/DTNB absorbance at 412 nm); type: biochemical; settings: recombinant enzyme from E. coli, 5 nM; 30 min pre-incubation, 60 min reaction
T2 construct: made in house; host or cells: E. coli
T2 sequence (P78540 23-354): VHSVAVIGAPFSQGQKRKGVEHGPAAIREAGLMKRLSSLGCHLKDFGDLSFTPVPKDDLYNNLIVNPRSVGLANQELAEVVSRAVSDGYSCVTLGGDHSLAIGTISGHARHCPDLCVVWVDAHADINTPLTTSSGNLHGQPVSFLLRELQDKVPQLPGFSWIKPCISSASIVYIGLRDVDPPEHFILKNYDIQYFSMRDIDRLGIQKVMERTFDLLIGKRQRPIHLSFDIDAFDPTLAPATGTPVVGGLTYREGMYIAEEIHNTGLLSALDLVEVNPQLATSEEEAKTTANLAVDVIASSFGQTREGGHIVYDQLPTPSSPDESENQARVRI
Text: as §1, §2, §3, §4

[1] = Bioavailability / pharmacokinetic study in male rats (IV and PO); type: in vivo; settings: plasma; for bioavailability / AUC / Cmax / Tmax: male, rat, po, 5 mg/kg; for clearance / Vd: male rat; for Vd: read-out: Vdss
Experimental: Examples 2, 3, and 4 are prodrug forms of Example 1. […] Example 2 was formulated in 0.9% w/v saline pH 4 (adjusted with 1M HCl) for IV dosing. The formulation was dosed at 2 mg/kg by femoral catheter to two male rats each (170-250 g). Jugular vein catheter serial blood samples were taken at 0.033, 0.083, 0.167, 0.5, 1, 2, 4, 8, and 24 hrs post-dose. For PO dosing, Example 2 was formulated in deionized water pH 4 (adjusted with 1M HCl) and dosed at 5 mg/kg by oral gavage to two male rats each (170-250 g). Serial blood samples were taken by jugular vein catheter at 0.25, 0.5, 1, 1.5, 2, 3, 4, 8, and 24 hrs post dose. Plasma samples were generated from blood using low speed centrifugation. A single set of calibration standards containing Example 1 and Example 2 were prepared by spiking blank plasma. The samples and standards were extracted by precipitation with two volumes of acetonitrile followed by centrifugation. The results obtained were used to determine the Cl (mL/min/kg), Vdss (L/kg), Cmax (μM), AUC (μM h), tmax (h), and % F for both Example 1 and Example 2. Absolute bioavailability was determined by comparing the PO dose normalized AUC of Example 1 when dosed as Example 2, versus the dose normalized IV AUC of Example 1 when dosed as Example 1. Where appropriate, measured and not nominal doses were used to calculate bioavailability. In an analogous fashion, the same procedure was repeated for Examples 3 and 4.

[2] = PO 5 mg/kg of Example 2, Example 1 measured when dosed as pro-drug
[3] = PO dosing of Example 3, Example 1 measured when dosed as pro-drug
[4] = PO dosing of Example 4, Example 1 measured when dosed as pro-drug
[5] = PO 5 mg/kg vs IV 2 mg/kg, pro-drug measured when dosed as pro-drug
[6] = PO 5 mg/kg, pro-drug measured when dosed as pro-drug
[7] = IV 2 mg/kg, pro-drug measured when dosed as pro-drug

IC50 (Human Arginase 1): 2200 nM
IC50 (Human Arginase 2): 2540 nM
SMILES: N[C@@H]1CCN[C@](CCCCB(O)O)(C(=O)O)C1 (single isomer, unassigned) [Example 12]

IC50 (Human Arginase 1): 20100 nM
IC50 (Human Arginase 2): 53100 nM
SMILES: N[C@H]1CCN[C@](CCCCB(O)O)(C(=O)O)C1 (single isomer, unassigned; enantiomer 1) [Example 10, Anti-4-amino-2-(4-boronobutyl)piperidine-2-carboxylic acid enantiomer 1]

IC50 (Human Arginase 1): 3150 nM
IC50 (Human Arginase 2): 4370 nM
SMILES: N[C@H]1CCN[C@](CCCCB(O)O)(C(=O)O)C1 (single isomer, unassigned; enantiomer 2) [Example 11, anti-4-amino-2-(4-boronobutyl)piperidine-2-carboxylic acid enantiomer 2]

IC50 (Human Arginase 1): 3 nM
bioavailability ([1]; Example 1 after PO Example 2 vs IV AUC of Example 1 dosed as Example 1, dose normalized): 82%
bioavailability ([1]; Example 1 after PO Example 3 vs IV AUC of Example 1 dosed as Example 1, dose normalized): 78%
bioavailability ([1]; Example 1 after PO Example 4 vs IV AUC of Example 1 dosed as Example 1, dose normalized): 20%
AUC [1, 2]: 23.7 µM·h
Cmax [1, 2]: 2500 nM
Tmax [1, 2]: 2.3 h
AUC [1, 3]: 25.7 µM·h
Cmax [1, 3]: 2000 nM
Tmax [1, 3]: 2.5 h
AUC [1, 4]: 6.1 µM·h
Cmax [1, 4]: 1000 nM
Tmax [1, 4]: 1.5 h
clearance ([1]; IV, Example 1 dosed as payload): 8.5 mL/min/kg
Vd ([1]; IV, Example 1 dosed as payload): 0.23 L/kg
IC50 (Human Arginase 2): 4 nM
SMILES: N[C@H]1CCN[C@@](CCCCB(O)O)(C(=O)O)C1 [Example 1, (2R,4S)-4-amino-2-(4-boronobutyl)piperidine-2-carboxylic acid]

IC50 (Human Arginase 1): 29 nM
bioavailability [1, 5]: 2%
AUC [1, 6]: 0.29 µM·h
Cmax [1, 6]: 350 nM
Tmax [1, 6]: 0.25 h
clearance [1, 7]: 16.3 mL/min/kg
Vd [1, 7]: 0.25 L/kg
IC50 (Human Arginase 2): 24 nM
SMILES: CC(C)[C@H](N)C(=O)N[C@H]1CCN[C@@](CCCCB(O)O)(C(=O)O)C1 [Example 2, (2R,4S)-4-((S)-2-amino-3-methylbutanamido)-2-(4-boronobutyl)piperidine-2-carboxylic acid]

IC50 (Human Arginase 1): 80 nM
bioavailability [1, 5]: 5.2%
AUC [1, 6]: 1.1 µM·h
Cmax [1, 6]: 640 nM
Tmax [1, 6]: 0.75 h
clearance [1, 7]: 13.5 mL/min/kg
Vd [1, 7]: 0.22 L/kg
IC50 (Human Arginase 2): 59 nM
SMILES: NCC(=O)N[C@H]1CCN[C@@](CCCCB(O)O)(C(=O)O)C1 [Example 3, (2R,4S)-4-(2-aminoacetamido)-2-(4-boronobutyl)piperidine-2-carboxylic acid]

IC50 (Human Arginase 1): 35 nM
clearance [1, 7]: 180 mL/min/kg
IC50 (Human Arginase 2): 27 nM
SMILES: C[C@H](N)C(=O)N[C@H]1CCN[C@@](CCCCB(O)O)(C(=O)O)C1 [Example 4, (2R,4S)-4-[[(2S)-2-aminopropanoyl]amino]-2-(4-boronobutyl)piperidine-2-carboxylic acid]

IC50 (Human Arginase 1): 25 nM
IC50 (Human Arginase 2): 21 nM
SMILES: CC[C@H](N)C(=O)N[C@H]1CCN[C@@](CCCCB(O)O)(C(=O)O)C1 [Example 5, (2R,4S)-4-[[(2S)-2-aminobutanoyl]amino]-2-(4-boronobutyl)piperidine-2-carboxylic acid]

IC50 (Human Arginase 1): 18 nM
IC50 (Human Arginase 2): 15 nM
SMILES: CC(C)C[C@H](N)C(=O)N[C@H]1CCN[C@@](CCCCB(O)O)(C(=O)O)C1 [Example 6, (2R,4S)-4-[[(2S)-2-amino-4-methyl-pentanoyl]amino]-2-(4-boronobutyl)piperidine-2-carboxylic acid]

IC50 (Human Arginase 1): 23 nM
IC50 (Human Arginase 2): 21 nM
SMILES: CC[C@H](C)[C@H](N)C(=O)N[C@H]1CCN[C@@](CCCCB(O)O)(C(=O)O)C1 [Example 7, (2R,4S)-4-[[(2S,3S)-2-amino-3-methyl-pentanoyl]amino]-2-(4-boronobutyl)piperidine-2-carboxylic acid]

IC50 (Human Arginase 1): 31 nM
IC50 (Human Arginase 2): 24 nM
SMILES: CC(C)(C)[C@H](N)C(=O)N[C@H]1CCN[C@@](CCCCB(O)O)(C(=O)O)C1 [Example 8, (2R,4S)-4-[[(2S)-2-amino-3,3-dimethyl-butanoyl]amino]-2-(4-boronobutyl)piperidine-2-carboxylic acid]

IC50 (Human Arginase 1): 234 nM
IC50 (Human Arginase 2): 180 nM
SMILES: CC(C)[C@@H](N)C(=O)N[C@H]1CCN[C@@](CCCCB(O)O)(C(=O)O)C1 [Example 9, (2R,4S)-4-[[(2R)-2-amino-3-methyl-butanoyl]amino]-2-(4-boronobutyl)piperidine-2-carboxylic acid]
